Molecular target: T1, RAC-alpha serine/threonine-protein kinase [139-480,S378A,S381A,T450D,S473D] (Homo sapiens, UniProt P31749, S378A/S381A/S473D/T450D)
T1 construct: 139-480
Assay: Akt Kinase Assay
Details: pH 7.5; 22 °C
Procedure: The kinase assay uses His-Akt1 and a biotinylated peptide as substrate. The biotinylated peptides were immobilized on streptavidin-coated FLASH plates. After reaction, the 33P-phosphopeptide captured on the FLASH plates was measured with a TopCount Packard Instruments […] (Packard Instruments, Boston, MA).

T1 sequence (P31749 139-480 S378A/S381A/T450D/S473D): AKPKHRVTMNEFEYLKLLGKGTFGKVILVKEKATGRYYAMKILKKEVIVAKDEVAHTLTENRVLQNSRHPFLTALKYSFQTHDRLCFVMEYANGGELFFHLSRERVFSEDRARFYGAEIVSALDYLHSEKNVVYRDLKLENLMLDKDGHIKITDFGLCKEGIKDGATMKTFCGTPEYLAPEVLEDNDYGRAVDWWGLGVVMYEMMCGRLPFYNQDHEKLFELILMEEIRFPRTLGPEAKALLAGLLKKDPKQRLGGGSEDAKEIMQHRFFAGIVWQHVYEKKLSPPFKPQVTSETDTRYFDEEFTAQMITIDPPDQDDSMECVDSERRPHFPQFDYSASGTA

SMILES | IC50
Nc1cc2[nH]ncc2cc1-c1cncc(OC[C@@H](N)Cc2c[nH]c3ccccc23)c1 [5-{5-[(2S)-2-amino-3-(1H-indol-3-yl)propoxy]pyridin-3-yl}-1H-indazol-6-amine] | 51 nM
C=Cc1n[nH]c2cnc(-c3cncc(OC[C@@H](N)Cc4ccccc4)c3)cc12 [3-[(2S)-2-amino-3-phenylpropoxy]-5-{3-ethenyl-1H-pyrazolo[3,4-c]pyridin-5-yl}pyridine] | 13 nM
Nc1cc2[nH]nc(Cl)c2cc1-c1cncc(OC[C@@H](N)Cc2c[nH]c3ccccc23)c1 [5-{5-[(2S)-2-amino-3-(1H-indol-3-yl)propoxy]pyridin-3-yl}-3-chloro-1H-indazol-6-amine] | 7.1 nM
Cc1n[nH]c2cnc(-c3cncc(OC[C@@H](N)Cc4ccccc4)c3)cc12 [3-[(2S)-2-amino-3-phenylpropoxy]-5-{3-methyl-1H-pyrazolo[3,4-c]pyridin-5-yl}pyridine] | 25 nM
N[C@H](COc1cncc(-c2cc3cn[nH]c3cc2[N+](=O)[O-])c1)Cc1c[nH]c2ccccc12 [5-{5-[(2S)-2-amino-3-(1H-indol-3-yl)propoxy]pyridin-3-yl}-6-nitro-1H-indazole] | 953 nM
Cn1cccc1-c1n[nH]c2cnc(-c3cncc(OC[C@@H](N)Cc4ccccc4)c3)cc12 [3-[(2S)-2-amino-3-phenylpropoxy]-5-[3-(1-methyl-1H-pyrrol-2-yl)-1H-pyrazolo[3,4-c]pyridin-5-yl]pyridine] | 228 nM
Cc1n[nH]c2cnc(-c3cncc(OC[C@@H](N)Cc4c[nH]c5ccccc45)c3)cc12 [pyrazolopyridine analog, 9g] | 0.34 nM
N[C@H](COc1cncc(-c2cc3cn[nH]c3cn2)c1)Cc1c[nH]c2ccccc12 [3-[(2S)-2-amino-3-[(5-{1H-pyrazolo[3,4-c]pyridin-5-yl}pyridin-3-yl)oxy]propyl]-1H-indole] | 0.6 nM
Cc1n[nH]c2c[n+]([O-])c(-c3cncc(OC[C@@H](N)Cc4ccccc4)c3)cc12 [5-{5-[(2S)-2-amino-3-phenylpropoxy]pyridin-3-yl}-3-methyl-6-oxido-1H-pyrazolo[3,4-c]pyridin-6-ium] | 104 nM
N[C@H](COc1cncc(-c2ccc3[nH]nc(C(F)(F)F)c3c2)c1)Cc1c[nH]c2ccccc12 [5-{5-[(2S)-2-amino-3-(1H-indol-3-yl)propoxy]pyridin-3-yl}-3-(trifluoromethyl)-1H-indazole] | 1.8 nM
N[C@H](COc1cncc(-c2cc3c(Cl)n[nH]c3cn2)c1)Cc1ccccc1 [3-[(2S)-2-amino-3-phenylpropoxy]-5-{3-chloro-1H-pyrazolo[3,4-c]pyridin-5-yl}pyridine] | 59 nM
N[C@H](COc1cncc(-c2cc3cn[nH]c3cn2)c1)Cc1ccccc1 [3-[(2S)-2-amino-3-phenylpropoxy]-5-{1H-pyrazolo[3,4-c]pyridin-5-yl}pyridine] | 223 nM
N[C@H](COc1cncc(-c2cc3c(-c4ccco4)n[nH]c3cn2)c1)Cc1ccccc1 [3-[(2S)-2-amino-3-phenylpropoxy]-5-[3-(furan-2-yl)-1H-pyrazolo[3,4-c]pyridin-5-yl]pyridine] | 6.1 nM
N[C@H](COc1cncc(-c2ccc3[nH]nc(Cl)c3c2)c1)Cc1c[nH]c2ccccc12 [5-{5-[(2S)-2-amino-3-(1H-indol-3-yl)propoxy]pyridin-3-yl}-3-chloro-1H-indazole] | 1 nM
N[C@H](COc1cncc(-c2cc3c(-c4ccccc4)n[nH]c3cn2)c1)Cc1ccccc1 [3-[(2S)-2-amino-3-phenylpropoxy]-5-{3-phenyl-1H-pyrazolo[3,4-c]pyridin-5-yl}pyridine] | 8.3 nM
N[C@H](COc1cncc(-c2ccc3[nH]ncc3c2)c1)Cc1c[nH]c2ccccc12 [5-{5-[(2S)-2-amino-3-(1H-indol-3-yl)propoxy]pyridin-3-yl}-1H-indazole] | 1.5 nM

— BindingDB's records for doi:10.1016/j.bmc.2007.01.010 (Abbott Laboratories, 2007)
